Experiments:
[1] = Specificity to the brain, confocal laser scanning microscopy of brain sections; type: in vivo; settings: rats, IV, 0.5 h after dosing
Procedure: Subsequently, the brain tissues were removed, washed with PBS, and fixed in 4% formaldehyde solution. After snap freezing in liquid nitrogen, the samples were embedded in […]. compound (Sakura Finetechnical, Tokyo, Japan) and cut into thin sections (10 μm). The slices were stained for cell nuclei with DAPI for 15 min in the dark and then washed three times with cold PBS. The sample was monitored by confocal laser scanning microscopy (Zeiss LSM710, Göttingen, Germany). ZEN Image Software 2012 was used to perform the image recording and image analysis. The image included 512 × 512 pixels measuring 2.77 × 2.77 μm^2.

bEnd.3 cells = assay: Uptake of C6 CLS-PEG NPs by bEnd.3 cells; type: cell-based, mouse; settings: 20–100 μg/mL, 37 °C, 30 min to 4 h
Procedure: BEnd. 3 cells were seeded into a 6-well plate and cultured for 24 h. Then, the medium was replaced with different concentrations (20–100 μg/mL) of free C6 or CLS-PEG NPs encapsulated with C6, and incubated at 37 °C for 2 h. To study the effects of incubation time on CLS-PEG NPs uptake, the CLS-PEG NPs loaded C6 (50 μg/mL) and the free C6 solution were added into the wells, and the plate was incubated at 37 °C for 30 min, 1 h, 2 h, or 4 h. At the end of the experiment, the cells were washed with ice-cold PBS three times. Subsequently, the cells were lysed with cell lysate (Beijing Saichi Biotechnology Co., Ltd., China). The quantitative measurement of intracellular C6 in bEnd.3 cell lysates was analyzed by a fluorescence microplate reader as described earlier. Total cell protein concentrations of the bEnd.3 cells were determined using a BCA protein assay (Beijing Kangwei Century Biotechnology Co., Ltd., China). The uptake of CLS-PEG NPs by bEnd.3 cells was calculated and expressed as the amount of CLS-PEG NPs (μg) taken up per mg of cell protein.

[2] = Tissue distribution studies after IV administration; type: in vivo, rats; settings: IV 0.5 mg/kg; for Tmax / AUC0-t / Cmax: C6, rats; for AUC0-t / Cmax: n = 3
Procedure: Wistar rats (180–200 g) were obtained from the Institute of Laboratory Animal Science, Chinese Academy of Medical Sciences, Beijing, China, and all animal experiments were performed in accordance with the regulations of the Animal Care and Use Committee of the Chinese Academy of Medical Sciences. […] A standard diet of food and water was supplied ad libitum during the experiments. […] The samples were stored at −20 °C until further analysis. The drug-targeting index (DTI) is considered an important parameter for tissue targeting efficiency, and was calculated using the following formula: DTI=AUCx/AUCp(NPs)/AUCx/AUCP(Free drug) Where “AUCx” is the AUC of tissue x, and “AUCp” is the AUC of the plasma.

[3] = Pharmacokinetic study, plasma C6 after IV administration; type: in vivo; settings: rats, IV 0.5 mg/kg
Procedure: Wistar rats (180–200 g) were obtained from the Institute of Laboratory Animal Science, Chinese Academy of Medical Sciences, Beijing, China, and all animal experiments were performed in accordance with the regulations of the Animal Care and Use Committee of the Chinese Academy of Medical Sciences. […] A standard diet of food and water was supplied ad libitum during the experiments. A polyethylene catheter (Portex, Hythe, UK) was inserted through the right jugular veins of all rats one day prior to the pharmacokinetic experiment, and flushed with 100 U/mL heparin in 0.9% saline. […] Subsequently, 100 μL of plasma was obtained by centrifugation at 5000 rpm for 7 min at 0 °C, and the serum was collected. The measurement of C6 in the samples was analyzed by a fluorescence microplate reader as described earlier.

In the case of `CCN(CC)c1ccc2cc(-c3nc4ccccc4s3)c(=O)oc2c1` [Free drug, coumarin-6], the “C6 fluorescent signal in the brain” value [1] is reported as “too weak to be distinguished”, the “cellular uptake by bEnd.3 cells” value (bEnd.3 cells) is reported as “only minimally entered the cells” and the Tmax ([2]; Brain) is reported as 30 min. It also gave an AUC0-t ([2]; Brain) of 3.84 ± 0.21 µg·min/mL, a Cmax ([2]; Brain) of 45.64 ± 2.25 ng/g and a Tmax ([2]; Heart) of 15 min. The AUC0-t ([2]; Heart) was 8.45 ± 0.93 µg·min/mL, the Cmax ([2]; Heart) was 113.89 ± 16.48 ng/g and the Tmax ([2]; Kidney) was 30 min. For the same compound, the AUC0-t ([2]; Kidney) was 2.56 ± 0.44 µg·min/mL, the Cmax ([2]; Kidney) was 22.20 ± 1.91 ng/g and the Tmax ([2]; Liver) was 15 min. It also gave an AUC0-t ([2]; Liver) of 141.71 ± 13.25 µg·min/mL, a Cmax ([2]; Liver) of 2685.53 ± 356.67 ng/g and a Tmax ([2]; Lung) of 30 min. For the same compound, the AUC0-t ([2]; Lung) was 63.88 ± 5.62 µg·min/mL, the Cmax ([2]; Lung) was 900.02 ± 67.86 ng/g and the Tmax ([2]; Spleen) was 15 min. For the same compound, the AUC0-t ([2]; Spleen) was 271.02 ± 16.03 µg·min/mL, the Cmax ([2]; Spleen) was 3848.83 ± 339.27 ng/g and the “distribution of C6 in the brain” value ([2]; rats) was “very little distribution in the brain”. The AUC0-t ([3]; C6 in plasma, n = 6) was 15.8 ± 2.4 µg·min/mL, the “AUC0-∞” value ([3]; C6 in plasma, n = 6) was 16.0 ± 2.3 µg·min/mL and the C0 ([3]; C6 in plasma, n = 6) was 828.4 ± 139.0 ng/mL. The CL ([3]; C6 in plasma, n = 6) was 6.4 ± 0.9 mL/min, the “Vd, λz” value ([3]; C6 in plasma, n = 6) was 0.6 ± 0.3 L and the “t1/2, λz” value ([3]; C6 in plasma, n = 6) was 60.1 ± 24.0 min. The “time after injection at which C6 was undetectable in plasma” value [3] was 4 h.

Reference: article PMC8241168, “Cholesterol–PEG comodified poly (N-butyl) cyanoacrylate nanoparticles for brain delivery: in vitro and in vivo evaluations” (Drug Delivery, 2017)
